Calls of active or inactive are those of the source.
How the values were obtained:
[1] = test system: CHO-K1; assay: (§1) Counterscreen for antagonists of the orexin 1 receptor (OX1R; HCRTR1): Homogeneous time resolved fluorescence (HTRF)-based cell-based dose response assay to identify antagonists of the parental CHO-K1 cell line. [Related pubchem assays (depositor defined):AID434989, AID435008, AID463079, AID485270, AID492963, AID492964, AID492965, AID493232, AID504699, AID504701]; format: functional; details: Cricetulus griseus
[2] = as §1, with “Fluorescence-based” for “Homogeneous time resolved fluorescence (HTRF)-based”, “cell-based high throughput” for “cell-based”, “CHO” for “CHO-K1”; format: functional
[3] = target: T1, Orexin/Hypocretin receptor type 1 (Homo sapiens, UniProt O43613); assay: Homogeneous Time Resolved Fluorescence (HTRF)-based cell-based high throughput dose response assay for antagonists of the orexin 1 receptor (OX1R; HCRTR1). [Related pubchem assays (depositor defined):AID434989, AID435008, AID463079, AID485270, AID492963, AID492964, AID492965, AID493232, AID504717, AID504718]; format: functional
T1 sequence (O43613 whole entry): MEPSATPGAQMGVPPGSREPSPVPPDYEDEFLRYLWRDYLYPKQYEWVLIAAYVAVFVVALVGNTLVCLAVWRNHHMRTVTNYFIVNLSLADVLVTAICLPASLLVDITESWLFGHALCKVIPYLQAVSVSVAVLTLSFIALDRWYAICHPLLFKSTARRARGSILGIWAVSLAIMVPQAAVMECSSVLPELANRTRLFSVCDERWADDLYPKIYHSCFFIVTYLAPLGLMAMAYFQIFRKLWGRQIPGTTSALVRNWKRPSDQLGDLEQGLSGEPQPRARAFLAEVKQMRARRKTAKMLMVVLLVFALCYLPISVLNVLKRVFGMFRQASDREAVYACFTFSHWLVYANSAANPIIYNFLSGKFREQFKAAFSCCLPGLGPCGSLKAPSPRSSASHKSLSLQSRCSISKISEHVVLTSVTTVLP

[4] = target: T1, Orexin/Hypocretin receptor type 1; assay: Fluorescence-based cell-based high throughput dose response assay for antagonists of the orexin 1 receptor (OX1R; HCRTR1). [Related pubchem assays (depositor defined):AID434989, AID435008, AID463079, AID485270, AID492963, AID492964, AID492965, AID493232, AID504717, AID504718]; format: functional
[5] = target: T2, Orexin receptor type 2 (Homo sapiens, UniProt O43614); assay: Counterscreen assay for antagonists of the orexin 1 receptor (OX1R; HCRTR1): Fluorescence-based cell-based dose response assay for antagonists of the orexin 2 receptor (OX2R; HCRTR2), run by assay provider.; format: functional
T2 sequence (O43614 whole entry): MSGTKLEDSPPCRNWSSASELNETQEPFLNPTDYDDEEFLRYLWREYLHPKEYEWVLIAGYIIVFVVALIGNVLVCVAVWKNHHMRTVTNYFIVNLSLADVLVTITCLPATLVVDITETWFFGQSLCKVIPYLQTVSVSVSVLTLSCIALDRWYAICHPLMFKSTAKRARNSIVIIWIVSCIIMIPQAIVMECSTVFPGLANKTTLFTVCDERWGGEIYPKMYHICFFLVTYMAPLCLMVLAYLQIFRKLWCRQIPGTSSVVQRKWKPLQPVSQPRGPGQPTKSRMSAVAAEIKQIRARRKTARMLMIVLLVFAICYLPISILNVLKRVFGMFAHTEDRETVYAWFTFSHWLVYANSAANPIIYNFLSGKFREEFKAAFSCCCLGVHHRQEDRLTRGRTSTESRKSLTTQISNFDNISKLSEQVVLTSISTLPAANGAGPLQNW

[6] = target: T2, Orexin receptor type 2; assay: Counterscreen assay for antagonists of the orexin 1 receptor (OX1R; HCRTR1): Homogeneous Time Resolved Fluorescence (HTRF)-based cell-based dose response assay for antagonists of the orexin 2 receptor (OX2R; HCRTR2), run by assay provider.; format: functional
[7] = target: Glucose-6-phosphate 1-dehydrogenase (Homo sapiens, UniProt P11413); assay: inhibition of Homo sapiens G6PD, dose series – biochemical, fluorescence, selectivity assay for P. falciparum G6PD inhibitor project, dose response (AID 504792); format: functional
[8] = target: T3, Heat shock factor protein 1 (Mus musculus, UniProt P38532); assay: enhancement of HSF1-driven luciferase signal – cell-based, NIH3T3, luminescence, dose retest, confirmation (AID 435004); format: functional;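 further: stress induced by proteasome inhibitor MG132 added 30 min after compound; luciferase reporter driven by HSF1 response element in NIH3T3 cells; actives raise luminescence as potentiators of the MG132 stress response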
T3 sequence (P38532 whole entry): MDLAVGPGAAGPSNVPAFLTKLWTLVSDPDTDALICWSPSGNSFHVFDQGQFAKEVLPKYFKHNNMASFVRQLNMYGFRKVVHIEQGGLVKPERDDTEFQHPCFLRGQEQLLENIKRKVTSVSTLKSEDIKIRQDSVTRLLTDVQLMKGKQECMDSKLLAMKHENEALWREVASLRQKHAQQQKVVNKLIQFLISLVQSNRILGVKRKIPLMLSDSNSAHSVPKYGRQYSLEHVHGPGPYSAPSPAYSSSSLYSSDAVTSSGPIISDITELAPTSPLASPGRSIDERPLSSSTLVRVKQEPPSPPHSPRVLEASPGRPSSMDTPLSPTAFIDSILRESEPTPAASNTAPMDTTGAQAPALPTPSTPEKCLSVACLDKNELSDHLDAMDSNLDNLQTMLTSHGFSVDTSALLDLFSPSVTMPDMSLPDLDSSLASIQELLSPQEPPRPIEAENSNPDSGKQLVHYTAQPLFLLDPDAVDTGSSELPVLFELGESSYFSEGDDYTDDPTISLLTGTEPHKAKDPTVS

[9] = test system: Vero; assay: viability of Vero cells under compound – cytotoxicity control for flavivirus capping enzyme inhibitors (AID 588742); format: functional; details: Chlorocebus sabaeus
[10] = test system: H9c2; assay: cells; format: functional, cell-based; details: Rattus norvegicus, H9c2, Myocardium;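 further: confirmatory concentration-response retest of ultra-high-throughput screening hits for modulation of myocardial damage; cell death induced by hydrogen peroxide oxidative stress; compound pretreatment for 60 min then peroxide exposure for 2 h; potency is for protecting the cells against peroxide damage rather than for killing them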
[11] = target: T4, Mitochondrial peptide methionine sulfoxide reductase (Bos taurus, UniProt P54149); format: functional;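 further: absorbance read-out, biochemical high-throughput dose-response screen for MsrA inhibitors, confirmatory; recombinant bovine MsrA coupled to E. coli TrxB with NADPH and selenocystamine; potency is for inhibitors of MsrA activity on DMSO substrate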
T4 sequence (P54149 whole entry): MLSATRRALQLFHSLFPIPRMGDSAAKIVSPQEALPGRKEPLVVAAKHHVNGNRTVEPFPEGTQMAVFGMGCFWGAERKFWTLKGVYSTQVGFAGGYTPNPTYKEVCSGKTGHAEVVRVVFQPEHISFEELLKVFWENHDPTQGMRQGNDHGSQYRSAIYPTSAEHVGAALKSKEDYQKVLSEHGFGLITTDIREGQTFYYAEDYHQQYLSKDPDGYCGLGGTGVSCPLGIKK

[12] = Luminescence-based cell-based high throughput dose response assay to identify activators of the DAF-12 from the parasite S. stercoralis (ssDAF-12).; format: functional
[13] = target: Nonstructural protein 1 (Influenza A virus, UniProt Q194T2); format: functional, Influenza A virus (A/California/07/2009(H1N1))
[14] = target: T5, Hexokinase HKDC1 (Homo sapiens, UniProt Q2TB90); assay: inhibition of HKDC1 glucose phosphorylation – biochemical, W721R variant, dose response (AID 504729); format: functional
T5 sequence (Q2TB90 whole entry): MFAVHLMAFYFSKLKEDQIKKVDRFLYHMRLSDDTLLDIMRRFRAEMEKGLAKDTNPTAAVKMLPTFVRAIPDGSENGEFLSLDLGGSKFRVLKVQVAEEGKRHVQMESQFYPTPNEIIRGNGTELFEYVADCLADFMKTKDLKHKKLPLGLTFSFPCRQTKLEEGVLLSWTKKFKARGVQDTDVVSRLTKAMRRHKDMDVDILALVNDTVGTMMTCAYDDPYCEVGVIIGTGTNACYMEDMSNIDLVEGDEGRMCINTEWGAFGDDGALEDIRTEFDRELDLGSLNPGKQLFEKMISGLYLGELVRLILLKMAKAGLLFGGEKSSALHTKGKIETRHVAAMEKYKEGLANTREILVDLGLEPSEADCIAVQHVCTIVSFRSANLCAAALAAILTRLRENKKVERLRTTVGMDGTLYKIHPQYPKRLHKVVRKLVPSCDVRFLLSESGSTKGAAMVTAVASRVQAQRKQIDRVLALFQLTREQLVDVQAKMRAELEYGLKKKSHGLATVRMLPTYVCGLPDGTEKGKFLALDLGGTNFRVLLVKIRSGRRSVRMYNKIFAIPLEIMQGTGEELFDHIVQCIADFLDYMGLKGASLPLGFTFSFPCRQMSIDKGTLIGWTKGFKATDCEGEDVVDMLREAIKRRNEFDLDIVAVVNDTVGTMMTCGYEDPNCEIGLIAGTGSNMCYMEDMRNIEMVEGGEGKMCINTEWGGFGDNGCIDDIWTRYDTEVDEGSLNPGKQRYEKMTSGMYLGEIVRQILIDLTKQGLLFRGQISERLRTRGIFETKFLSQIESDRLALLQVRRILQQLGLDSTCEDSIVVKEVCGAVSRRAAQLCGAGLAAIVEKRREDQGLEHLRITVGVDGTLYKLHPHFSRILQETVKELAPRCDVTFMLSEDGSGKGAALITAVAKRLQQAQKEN

[15] = target: Genome polyprotein (dengue virus type 2, UniProt P29990); assay: flavivirus cap methylation enzyme inhibition – biochemical, confirmation dose response, primary screen (AID 588689); format: functional
[16] = target: Luciferin 4-monooxygenase (Photinus pyralis, UniProt P08659); assay: inhibition of purified Photinus pyralis luciferase – biochemical, luminescence, dose response (AID 1891)
[17] = Luminescence Cell-Based Dose Confirmation HTS to Identify Inhibitors of Platelet Dense Granule Release. [Related pubchem assays: 1663 (Primary HTS), 1678 (Summary of Project)]; format: functional
[18] = test system: HeLa; assay: ATP-based viability loss in HeLa cells – cell-based, CellTiter-Glo luminescence, cherry-pick samples, cytotoxicity control for MITF activator project, dose response (AID 540259); format: functional; details: Homo sapiens

Chain of Nonstructural protein 1 (Q194T2 whole entry): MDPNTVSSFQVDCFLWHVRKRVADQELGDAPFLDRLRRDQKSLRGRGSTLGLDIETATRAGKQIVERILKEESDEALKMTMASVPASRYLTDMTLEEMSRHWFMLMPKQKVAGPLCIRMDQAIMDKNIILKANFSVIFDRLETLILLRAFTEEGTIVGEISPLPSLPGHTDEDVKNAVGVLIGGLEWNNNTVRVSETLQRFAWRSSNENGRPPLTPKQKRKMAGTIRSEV
Chain of Glucose-6-phosphate 1-dehydrogenase (P11413 whole entry): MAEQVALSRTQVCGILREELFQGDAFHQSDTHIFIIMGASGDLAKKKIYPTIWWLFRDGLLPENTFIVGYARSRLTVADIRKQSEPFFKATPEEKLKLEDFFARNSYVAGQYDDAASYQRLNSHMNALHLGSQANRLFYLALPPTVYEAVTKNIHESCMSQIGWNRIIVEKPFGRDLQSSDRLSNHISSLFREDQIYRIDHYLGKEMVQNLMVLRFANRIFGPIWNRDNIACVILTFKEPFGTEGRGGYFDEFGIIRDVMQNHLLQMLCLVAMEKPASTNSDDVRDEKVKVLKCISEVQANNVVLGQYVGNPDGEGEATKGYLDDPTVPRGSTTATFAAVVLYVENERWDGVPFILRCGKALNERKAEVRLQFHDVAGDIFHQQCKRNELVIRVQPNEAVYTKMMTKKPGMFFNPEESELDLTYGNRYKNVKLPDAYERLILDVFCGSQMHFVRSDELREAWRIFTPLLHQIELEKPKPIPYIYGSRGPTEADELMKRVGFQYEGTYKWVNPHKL
Chain of Genome polyprotein (P29990 2492-3391 limits assumed): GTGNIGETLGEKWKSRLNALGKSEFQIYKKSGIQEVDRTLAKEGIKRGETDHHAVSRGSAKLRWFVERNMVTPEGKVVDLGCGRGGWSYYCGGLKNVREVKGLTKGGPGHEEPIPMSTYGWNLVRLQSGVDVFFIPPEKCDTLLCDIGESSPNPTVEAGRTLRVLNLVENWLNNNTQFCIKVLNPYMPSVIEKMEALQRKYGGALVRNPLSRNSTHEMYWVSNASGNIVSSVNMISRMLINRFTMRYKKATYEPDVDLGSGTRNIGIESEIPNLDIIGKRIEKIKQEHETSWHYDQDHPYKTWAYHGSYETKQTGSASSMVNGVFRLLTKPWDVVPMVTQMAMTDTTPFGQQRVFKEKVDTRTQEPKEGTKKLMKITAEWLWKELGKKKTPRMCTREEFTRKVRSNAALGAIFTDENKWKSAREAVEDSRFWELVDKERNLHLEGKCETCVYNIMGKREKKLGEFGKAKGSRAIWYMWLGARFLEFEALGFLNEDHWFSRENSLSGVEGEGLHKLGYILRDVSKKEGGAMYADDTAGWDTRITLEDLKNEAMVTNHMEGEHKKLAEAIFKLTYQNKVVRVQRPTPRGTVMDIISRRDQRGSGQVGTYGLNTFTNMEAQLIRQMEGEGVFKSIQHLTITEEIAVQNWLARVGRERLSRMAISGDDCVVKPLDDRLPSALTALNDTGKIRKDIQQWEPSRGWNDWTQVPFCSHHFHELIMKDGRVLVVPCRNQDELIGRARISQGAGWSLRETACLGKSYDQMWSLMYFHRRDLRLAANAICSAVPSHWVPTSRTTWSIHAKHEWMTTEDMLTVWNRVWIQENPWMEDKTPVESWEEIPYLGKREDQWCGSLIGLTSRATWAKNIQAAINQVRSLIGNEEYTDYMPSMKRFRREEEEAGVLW
Chain of Luciferin 4-monooxygenase (P08659 whole entry): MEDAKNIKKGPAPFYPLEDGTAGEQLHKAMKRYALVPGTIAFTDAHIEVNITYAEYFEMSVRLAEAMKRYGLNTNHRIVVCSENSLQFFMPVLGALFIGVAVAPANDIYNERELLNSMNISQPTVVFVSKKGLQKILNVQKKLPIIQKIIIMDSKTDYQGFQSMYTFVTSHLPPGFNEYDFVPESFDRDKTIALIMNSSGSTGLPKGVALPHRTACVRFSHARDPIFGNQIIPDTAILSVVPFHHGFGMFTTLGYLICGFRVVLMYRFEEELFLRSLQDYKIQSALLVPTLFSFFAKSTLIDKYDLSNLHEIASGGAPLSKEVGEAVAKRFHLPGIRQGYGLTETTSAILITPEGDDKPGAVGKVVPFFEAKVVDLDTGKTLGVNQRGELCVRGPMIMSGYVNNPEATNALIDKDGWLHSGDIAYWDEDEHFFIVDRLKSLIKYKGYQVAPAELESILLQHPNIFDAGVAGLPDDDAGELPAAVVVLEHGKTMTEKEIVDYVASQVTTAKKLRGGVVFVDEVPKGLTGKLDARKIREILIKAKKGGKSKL

COc1ccc(-c2nn3c(-c4ccccc4)nnc3s2)cc1
inactive: IC50 [1] > 66.2 µM | IC50 [2] > 49.8 µM | IC50 [5] > 88.8 µM | IC50 [6] > 50 µM
active: IC50 [3] 2.44 µM | IC50 [4] > 5.53 µM

N#CC1=C(N)Oc2c(O)cc3ccccc3c2C1c1ccsc1 (centres undefined)
inactive: IC50 [7] > 80 µM | IC50 [10] > 79 µM | IC50 [11] 155 µM | IC50 [12] > 67.5 µM
active: EC50 [8] 41.5 µM | CC50 [9] > 40 µM

Cc1ccc(SC2=C(N(C)C)C(=O)c3ccccc3C2=O)cc1
active: IC50 [13] 8.5 µM | IC50 [14] 6.72 µM | CC50 [9] 22.1 µM | IC50 [15] 65 µM

CSc1nc(N)n2nc(-c3ccc(Cl)cc3)cc2n1
active: EC50 [16] 464 nM | EC50 [17] 3.88 µM | AC50 [18] 71.6 µM
